According to PubChem BioAssay AID330 (DTP/NCI, 2004):
Several values for one entry are separate records, joined by “and”; a condition that tells them apart may be missing. Equal entries are not always repeated. Toxic doses and inconclusive results are not listed. How the source made its calls: active means survival T/C of 150% or more; inactive means T/C below 125% in these data.

System: P388 leukemia ip, CD2F1 mice, survival T/C
Assay: NCI In Vivo Anticancer Drug Screen. Data for tumor model P388 Leukemia (intraperitoneal) in CD2F1 (CDF1) mice
Conditions: endpoint: median survival time, higher = longer survival
Procedure, shortened: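 Mice carrying the transplanted tumor received test compound or vehicle. Survival was recorded in each group, and the value is the treated-group measurement divided by that of the vehicle-treated control group.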

[1] = dose: 50.0 mg/kg/injection, schedule: Q01DX005 (ip), vehicle: saline with Tween-80
[2] = dose: 100.0 mg/kg/injection, schedule: Q01DX005 (ip), vehicle: saline with Tween-80
[3] = dose: 12.5 mg/kg/injection, schedule: Q01DX009 (ip), vehicle: saline with Tween-80
[4] = dose: 50.0 mg/kg/injection, schedule: Q01DX009 (ip), vehicle: saline with Tween-80
[5] = dose: 100.0 mg/kg/injection, schedule: Q04DX003 (ip), vehicle: saline
[6] = dose: 200.0 mg/kg/injection, schedule: Q04DX003 (ip), vehicle: saline
[7] = dose: 400.0 mg/kg/injection, schedule: Q04DX003 (ip), vehicle: saline

Measured: T/C

CC1=C2C(=CC(C)(C)[C@@H]2O)C(=O)[C@](C)(O)C12CC2
inactive: dose: 0.26 mg/kg/injection, schedule: Q01DX010 (ip), vehicle: saline 110 % of control | dose: 0.4 mg/kg/injection, schedule: Q01DX010 (ip), vehicle: saline 110 % of control | dose: 0.6 mg/kg/injection, schedule: Q01DX010 (ip), vehicle: saline 115 % of control | dose: 45.0 micrograms/kg/injection, schedule: Q01DX010 (ip), vehicle: saline 100 % of control | dose: 90.0 micrograms/kg/injection, schedule: Q01DX010 (ip), vehicle: saline 104 % of control | dose: 180.0 micrograms/kg/injection, schedule: Q01DX010 (ip), vehicle: saline 113 % of control

CC1(C)OC2OC(/C=N\NC(=O)c3cc4cc(OCc5ccccc5)ccc4[nH]3)C3OC(C)(C)OC3C2O1 (stereo not drawn)
inactive: dose: 50.0 mg/kg/injection, schedule: Q01DX005 (ip), vehicle: Klucel (hydroxypropylcellulose) (HPC) 102 % of control | dose: 100.0 mg/kg/injection, schedule: Q01DX005 (ip), vehicle: Klucel (hydroxypropylcellulose) (HPC) 104 % of control | dose: 200.0 mg/kg/injection, schedule: Q01DX005 (ip), vehicle: Klucel (hydroxypropylcellulose) (HPC) 102 % of control

CNC1C(O)C(OC2C(N)CC(N)C(OC3OC(CN)=CCC3N)C2O)OCC1(C)O (stereo not drawn)
inactive: dose: 62.5 mg/kg/injection, schedule: Q01DX009 (ip), vehicle: saline 104 % of control | dose: 125.0 mg/kg/injection, schedule: Q01DX009 (ip), vehicle: saline 104 % of control

O=C(O)C1Cc2c([nH]c3ccccc23)C(CO)N1 (stereo not drawn)
inactive: dose: 25.0 mg/kg/injection, schedule: Q01DX009 (ip), vehicle: suspension in saline 107 % of control | dose: 50.0 mg/kg/injection, schedule: Q01DX009 (ip), vehicle: suspension in saline 104 % of control

CSCCC(NC(=O)CN(C)C(=O)OCc1ccccc1)C(=O)O (stereo not drawn)
inactive: [1] 100 % of control | [2] 100 % of control

CC1(C)Oc2ccccc2O1
inactive: [3] 96 % of control | dose: 25.0 mg/kg/injection, schedule: Q01DX009 (ip), vehicle: saline with Tween-80 108 % of control | [4] 107 % of control | dose: 100.0 mg/kg/injection, schedule: Q01DX009 (ip), vehicle: saline with Tween-80 113 % of control

CSC(=S)N/N=C(\c1ccccc1)c1ccccn1
inactive: dose: 6.25 mg/kg/injection, schedule: Q01DX009 (ip), vehicle: saline with Tween-80 96 % of control | [3] 89 % of control and 97 % of control | [4] 92 % of control

CCOC(=O)c1cnc(Sc2ccc([N+](=O)[O-])cc2[N+](=O)[O-])nc1N
inactive: [5] 93 % of control | [6] 100 % of control | [7] 98 % of control

N#CCNC=O
inactive: dose: 60.0 mg/kg/injection, schedule: Q01DX005 (ip), vehicle: saline 98 % of control | dose: 120.0 mg/kg/injection, schedule: Q01DX005 (ip), vehicle: saline 103 % of control | dose: 240.0 mg/kg/injection, schedule: Q01DX005 (ip), vehicle: saline 100 % of control

[Cu+2].[NH-]C(Cc1cnc[nH]1)C(=O)O.[NH-]CC(=O)O (stereo not drawn)
inactive: dose: 6.25 mg/kg/injection, schedule: Q01DX009 (ip), vehicle: saline 97 % of control | dose: 12.5 mg/kg/injection, schedule: Q01DX009 (ip), vehicle: saline 93 % of control and 95 % of control | dose: 25.0 mg/kg/injection, schedule: Q01DX009 (ip), vehicle: saline 97 % of control

CC(=O)/C(=C\c1ccc(O)cc1)C(=O)CCN(C)C
inactive: [1] 108 % of control | [2] 112 % of control | dose: 200.0 mg/kg/injection, schedule: Q01DX005 (ip), vehicle: saline with Tween-80 112 % of control

NC(COC(=O)NCCCl)C(=O)O (stereo not drawn)
inactive: dose: 50.0 mg/kg/injection, schedule: Q01DX009 (ip), vehicle: Klucel (hydroxypropylcellulose) (HPC) 88 % of control | dose: 100.0 mg/kg/injection, schedule: Q01DX009 (ip), vehicle: Klucel (hydroxypropylcellulose) (HPC) 93 % of control | dose: 200.0 mg/kg/injection, schedule: Q01DX009 (ip), vehicle: Klucel (hydroxypropylcellulose) (HPC) 111 % of control

O=[N+]([O-])c1c(Nc2ccccc2)nc(-c2ccccc2)nc1Nc1ccccc1
inactive: [5] 90 % of control | [6] 92 % of control | [7] 90 % of control

Cc1cc2n(n1)C(=O)CC(=O)C2
inactive: dose: 60.0 mg/kg/injection, schedule: Q01DX005 (ip), vehicle: saline with Tween-80 98 % of control | dose: 120.0 mg/kg/injection, schedule: Q01DX005 (ip), vehicle: saline with Tween-80 100 % of control | dose: 240.0 mg/kg/injection, schedule: Q01DX005 (ip), vehicle: saline with Tween-80 109 % of control
